Source: publication PMC9737772, “Synthesis and Anti-Inflammatory Activity of 1-Methylhydantoin Cinnamoyl Imides” (Molecules, 2022)

Assays:
[1] = system: xylene-induced ear edema in mice; design: method as in PMID 31247960, doi:10.2174/157018012800673092; conditions: previous study; cited from earlier work
[2] = Cytotoxicity determination by CCK-8; type: cell-based; conditions: mouse, RAW264.7 macrophage cells, RAW264.7 cells
Experimental: (§1) RAW264.7 mouse macrophages were purchased from Zhongqiao Xinzhou and cultured in DMEM supplemented with 10% fetal bovine serum (FBS) and 1% penicillin/streptomycin in a 37 °C, 5% CO2 incubator. The cells were passaged every two days to maintain the monolayer cell state.
The CCK-8 kit was used to determine the cytotoxicity of the target compounds (1–5) to RAW264.7 cells. The well-growing cells were subcultured in a 96-well plate. After the cells adhered to the wall, the experimental group was added with a medium containing different concentrations of compounds to make the final concentration reach 5, 10, 20, 40, 80, 160 and 320 μmoL/L. The control group was added with a medium without compound, and a blank group without cells or compound was set at the same time. After culturing in a constant temperature incubator for a period, CCK-8 solution was added to produce yellow formazan product. The OD value was measured by the microplate reader at the detection wavelength of 450 nm, and the cell survival rate was calculated. The cell survival rate formula is as follows:(1) Cell Survival Rate %=ODe−ODb/ODc−ODb×100% where ODe was the OD value of the experimental group, ODb was the OD value of the blank group, and ODc was the OD value of the control group.

[3] = system: TNF-α secretion in RAW264.7 cells induced by LPS; assay: TNF-α content in supernatant of LPS-induced RAW264.7 cells (ELISA); type: cell-based, mouse; conditions: 20 μM, LPS 1 ug/mL, 24 h, RAW264.7, vs model group
Experimental: Tumor necrosis factor-α (TNF-α) is a pleiotropic proinflammatory cytokine, known for its proinflammatory activity. To explore the inhibitory effects of five compounds on TNF-α, ELISA was used to determine the content of inflammatory factor TNF-α in the supernatant of RAW264.7 cells stimulated by LPS. RAW264.7 cells secreted a large amount of inflammatory-factor TNF-α 24 h after LPS (1 ug/mL) induction.
as §1
(§2) The RAW264.7 cells in the logarithmic growth phase were seeded in a 24-well plate and placed in a 37 °C, 5% CO2 constant temperature incubator for culture. After 24 h, the culture medium was discarded. The blank group was added with 10% FBS DMEM 1 mL. The group was added with a medium containing 1 ug/mL LPS, and the experimental group was added with LPS and different concentrations of the target compound to make the final volume 1 mL. After 24 h of culture, the cell supernatant was taken and stored in a refrigerator at −20 °C for later use. The Griess kit was used to determine the concentration of NO in the supernatant, and a double antibody sandwich ELISA kit was used to detect TNF-α and IL-1β.

[4] = system: IL-1β secretion in RAW264.7 cells induced by LPS; assay: IL-1β content in supernatant of LPS-induced RAW264.7 cells (ELISA); type: cell-based, mouse; conditions: 20 μM, LPS, 24 h, RAW264.7, vs model group
Description: Interleukin-1β (IL-1β) has strong proinflammatory activity and can induce the production of a variety of proinflammatory mediators, such as cytokines and chemokines. In this work, the ELISA method was used to determine the IL-1β content in the supernatant of RAW264.7 cells stimulated by LPS to evaluate the effects of five compounds on IL-1β secretion.
as §1, §2

[5] = system: xylene-induced ear edema in mice; assay: Xylene-induced ear edema in mice; type: in vivo, Kunming mice; conditions: for Degree of Edema: 30 μL xylene, 30 min, mean ± SD, n = 6; for Inhibition of ear swelling: xylene-induced ear edema
Experimental: To evaluate the differences in anti-inflammatory effects of the five compounds, the in vivo anti-inflammatory experiment was conducted based on the acute inflammation model of ear swelling induced by xylene. Under the inflammatory effect of 30 μL of xylene, the degree of ear swelling in the blank group and each experimental group was different. […] With an increase in dose the degree of ear swelling decreased, and the effect of ear swelling inhibition was more significant at high dose (100 mg/kg). Under the action of drugs, the five target compounds (1–5) have significant inhibitory effects on ear swelling (Figure 6).
Adult male Kunming mice (18–20 g) were bought from Liaoning Changsheng Biotechnology Co., Ltd. (Shenyang, China, License No. SCXK (Liao) 2015-0001). The breeding is carried out under standard conditions without pathogens (constant room temperature 20–22 °C, 55 ± 5% humidity, 12 h light–dark cycle and free access to food and water). The research protocol has been approved by the Animal Experiment Ethics Committee of the School of Pharmacy of Jilin University (20190048). All experimental operations follow the principles of laboratory animal care, and all animal experiments are conducted in accordance with the Guide for the Care and Use of Laboratory Animals (released by the National Research Council).
In this experiment, Kunming mice were randomly divided into two groups. One group was given 5% sodium carboxymethyl cellulose solution as the blank group, and the other group was given different concentrations of the target compound as the experimental group (high, medium and low doses); continuous intragastric administration was two days and the volume of intragastric administration was 0.2 mL. One hour after the last administration, 30 μL of xylene was evenly smeared on both sides of the mouse’s right ear. After 30 min, the mouse’s right ear was obviously red and swollen and the capillary congestion was severe. Cervical vertebrae were dislocated and sacrificed. The ears on both sides were quickly cut off, an 8 mm ear punch was used to punch holes at the same position on the ears on both sides and they were immediately weighed to calculate the weight difference.
The formula for the difference in ear weight is as follows:(2) D=Wr−Wl where Wr was the weight of the right ear and Wl was the weight of the left ear.
The formula for the inhibition rate of ear swelling is as follows:(3) Inhibition %=Dc−Dt/Dc×100% where Dc was the extent of ear edema of the control group and Dt was the extent of ear edema of the treatment group.

[6] = 25 mg/kg intragastric for two days
[7] = 50 mg/kg intragastric for two days
[8] = 100 mg/kg (high dose) intragastric
[9] = 100 mg/kg intragastric for two days

melting point | SMILES | effect on ear edema in mice caused by xylene [1] | CC50 [2] | inhibition of TNF-α secretion [3] | inhibition of IL-1β secretion [4] | Degree of Edema [5, 6] | Inhibition of ear swelling ([5]; 25 mg/kg intragastric) | Degree of Edema [5, 7] | Inhibition of ear swelling ([5]; 50 mg/kg intragastric) | Inhibition of ear swelling [5, 8] | Degree of Edema [5, 9]
– | CN1CC(=O)NC1=O [MHD, 1-Methylhydantoin] | can reduce ear edema in mice caused by xylene | – | – | – | – | – | – | – | – | –
148.3 to 149.8 °C | COc1cc(/C=C/C(=O)N2C(=O)CN(C)C2=O)ccc1OC(C)=O [Compound 5, (E)-2-methoxy-4-(3-(3-methyl-2,5-dioxoimidazolidin-1-yl)-3-oxoprop-1-en-1-yl)phenyl acetate] | – | 232 µM | no obvious inhibitory effect on TNF-α | no obvious inhibitory effect on IL-1β | 10.46 ± 0.64 mg | 14.61% | 7.95 ± 0.71 mg | 35.10% | 52.08% | 5.87 ± 0.75 mg
164.8 to 166.1 °C | CN1CC(=O)N(C(=O)/C=C/c2ccc3c(c2)OCO3)C1=O [Compound 3, (E)-3-(3-(benzo[d][1,3]dioxol-5-yl)acryloyl)-1-methylimidazolidine-2,4-dione] | – | 184 µM | no obvious inhibitory effect on TNF-α | no obvious inhibitory effect on IL-1β | 9.41 ± 1.37 mg | 23.18% | 9.05 ± 0.84 mg | 26.12% | 33.06% | 8.20 ± 0.27 mg
140.6 to 141.5 °C | CN1CC(=O)N(C(=O)C=Cc2ccccc2)C1=O [Compound 1, 3-cinnamoyl-1-methylimidazolidine-2,4-dione] | – | 264 µM | no obvious inhibitory effect on TNF-α | no obvious inhibitory effect on IL-1β | 9.84 ± 0.72 mg | 19.67% | 8.47 ± 0.64 mg | 30.86% | 44.16% | 6.84 ± 0.61 mg
